Assay results published in ChEMBL document CHEMBL1137662, “Effect of oral treatment with hexadecyloxypropyl-[(S)-9-(3-hydroxy-2- phosphonylmethoxypropyl)adenine] [(S)-HPMPA] or octadecyloxyethyl-(S)-HPMPA on cowpox or vaccinia virus infections in mice” (Antimicrob Agents Chemother, 2007).

What was measured:
[1] = Half life in Swiss Webster mouse at 10 mg/kg, po; format: ADME, organism-based; design: dose 10 mg/kg, route oral; settings: in vivo
Vaccinia virus [2] = experiment: Antiviral activity against Vaccinia virus WR infected BALB/c mouse assessed as mean death day at 3 mg/kg, po treated for 5 days after 72 hrs of viral inoculation; format: functional, Orthopoxvirus vaccinia
Lung [3] = experiment: Drug level in Swiss Webster mouse lung at 10 mg/kg, ip after 1 hr; format: ADME, organism-based; design: dose 10 mg/kg, route intraperitoneal; settings: in vivo
Vaccinia virus [4] = experiment: Antiviral activity against Vaccinia virus WR infected BALB/c mouse assessed as mortality at 10 mg/kg, po treated for 5 days after 24 hrs of viral inoculation; format: functional, Orthopoxvirus vaccinia
[5] = Half life in Swiss Webster mouse at 10 mg/kg, ip; format: ADME, organism-based; design: dose 10 mg/kg, route intraperitoneal; settings: in vivo
Lung [6] = experiment: Drug level in Swiss Webster mouse lung at 10 mg/kg, po after 3 hrs; format: ADME, organism-based; design: dose 10 mg/kg, route oral; settings: in vivo
Vaccinia virus [7] = experiment: Antiviral activity against Vaccinia virus WR infected BALB/c mouse assessed as mortality at 30 mg/kg, po treated for 5 days after 72 hrs of viral inoculation; format: functional, Orthopoxvirus vaccinia
Mus musculus [8] = experiment: Plasma concentration in Swiss Webster mouse at 10 mg/kg, po after 24 hrs by liquid scintillation counting; format: ADME, organism-based; design: dose 10 mg/kg, route oral; settings: in vivo
[9] = Tmax in Swiss Webster mouse at 10 mg/kg, po; format: ADME, organism-based; design: dose 10 mg/kg, route oral; settings: in vivo
Liver [10] = experiment: Drug level in Swiss Webster mouse liver at 10 mg/kg, ip after 1 hr; format: ADME, organism-based; design: dose 10 mg/kg, route intraperitoneal; settings: in vivo
[11] = Selectivity index, ratio of CC50 for HFF cells to EC50 for Vaccinia virus WR; format: toxicity, cell-based; settings: human, read-out: Ratio CC50/EC50
Mus musculus [12] = experiment: AUC (0 to 24hrs) in Swiss Webster mouse plasma at 10 mg/kg, po; format: ADME, organism-based; design: time < 24 hr, dose 10 mg/kg, route oral; settings: in vivo
Vaccinia virus [13] = experiment: Antiviral activity against Vaccinia virus WR infected BALB/c mouse assessed as mortality at 10 mg/kg, po treated for 5 days after 72 hrs of viral inoculation; format: functional, Orthopoxvirus vaccinia
Vaccinia virus [14] = experiment: Antiviral activity against Vaccinia virus WR infected BALB/c mouse assessed as log reduction of viral titer per gram of liver at 30 mg/kg, po treated for 5 days after 24 hrs of viral inoculation; format: functional, Orthopoxvirus vaccinia
[15] = Oral bioavailability in Swiss Webster mouse at 10 mg/kg; format: ADME, organism-based; settings: in vivo
Cowpox virus [16] = experiment: Antiviral activity against Cowpox virus Brighton infected BALB/c mouse assessed as log reduction of viral titer per gram of spleen at 30 mg/kg, po treated for 5 days after 24 hrs of viral inoculation; format: functional, Cowpox virus (Brighton Red)
Mus musculus [17] = experiment: Plasma concentration in Swiss Webster mouse at 10 mg/kg, ip after 24 hrs by liquid scintillation counting; format: ADME, organism-based; design: dose 10 mg/kg, route intraperitoneal; settings: in vivo
Mus musculus [18] = experiment: AUC (0 to 24hrs) in Swiss Webster mouse plasma at 10 mg/kg, ip; format: ADME, organism-based; design: time < 24 hr, dose 10 mg/kg, route intraperitoneal; settings: in vivo
Mus musculus [19] = experiment: Toxicity in BALB/c mouse at 30 mg/kg, po; format: organism-based; design: dose 30 mg/kg, route oral; settings: in vivo
[20] = Cmax in Swiss Webster mouse at 10 mg/kg, ip; format: ADME, organism-based; design: dose 10 mg/kg, route intraperitoneal; settings: in vivo
Cowpox virus [21] = experiment: Antiviral activity against Cowpox virus Brighton infected BALB/c mouse assessed as log reduction of viral titer per gram of liver at 30 mg/kg, po treated for 5 days after 24 hrs of viral inoculation; format: functional, Cowpox virus (Brighton Red)
Kidney [22] = experiment: Drug level in Swiss Webster mouse kidney at 10 mg/kg, ip after 1 hr; format: ADME, organism-based; design: dose 10 mg/kg, route intraperitoneal; settings: in vivo
Vaccinia virus [23] = experiment: Antiviral activity against Vaccinia virus WR infected BALB/c mouse assessed as mortality at 3 mg/kg, po treated for 5 days after 48 hrs of viral inoculation; format: functional, Orthopoxvirus vaccinia
Vaccinia virus [24] = experiment: Antiviral activity against Vaccinia virus WR infected BALB/c mouse assessed as log reduction of viral titer per gram of kidney at 30 mg/kg, po treated for 5 days after 24 hrs of viral inoculation; format: functional, Orthopoxvirus vaccinia
Liver [25] = experiment: Drug level in Swiss Webster mouse liver at 10 mg/kg, po after 3 hrs; format: ADME, organism-based; design: dose 10 mg/kg, route oral; settings: in vivo
[26] = Cmax in Swiss Webster mouse at 10 mg/kg, po; format: ADME, organism-based; design: dose 10 mg/kg, route oral; settings: in vivo
Kidney [27] = experiment: Drug level in Swiss Webster mouse kidney at 10 mg/kg, po after 3 hrs; format: ADME, organism-based; design: dose 10 mg/kg, route oral; settings: in vivo
[28] = Tmax in Swiss Webster mouse at 10 mg/kg, ip; format: ADME, organism-based; design: dose 10 mg/kg, route intraperitoneal; settings: in vivo

SMILES | Activity (Vaccinia virus [2]) [days] | Activity (Vaccinia virus [4]) [%] | Activity (Vaccinia virus [7]) [%] | selectivity ratio [11] | Activity (Vaccinia virus [13]) [%] | log10PFU (Vaccinia virus [14]) [g] | log10PFU (Cowpox virus [16]) [g] | Activity (Mus musculus [19]) | log10PFU (Cowpox virus [21]) [g] | Activity (Vaccinia virus [23]) [%] | log10PFU (Vaccinia virus [24]) [g] | also measured
CCCCCCCCCCCCCCCCOCCCOP(=O)(O)CO[C@H](CO)Cn1cnc2c(N)ncnc21 | 7.8 | 0 | 7 | 32 | 53 | 4 | 2.5 | Non-toxic | 2.5 | 33 | 4 | half-life [1]: 11.5 h; Drug uptake (Lung [3]): 2.8 nmol/g; half-life [5]: 2.5 h; Drug uptake (Lung [6]): 1.9 nmol/g; concentration (Mus musculus [8]): 30 nM; Tmax [9]: 1 h; Drug uptake (Liver [10]): 130 nmol/g; AUC (Mus musculus [12]): 12.1 nmol·h/g; bioavailability [15]: 74%; concentration (Mus musculus [17]): 80 nM; AUC (Mus musculus [18]): 16.4 nmol·h/g; Cmax [20]: 2200 nM; Drug uptake (Kidney [22]): 23 nmol/g; Drug uptake (Liver [25]): 21 nmol/g; Cmax [26]: 1100 nM; Drug uptake (Kidney [27]): 5.1 nmol/g; Tmax [28]: 3 h
CCCCCCCCCCCCCCCCCCOCCOP(=O)(O)CO[C@H](CO)Cn1cnc2c(N)ncnc21 | 9 | 0 | 73 | 15 | 33 | 4 | 2.5 | Non-toxic | 2.5 | 53 | 4 | 
